Data published in patent US20220315908A1, “NOVEL GARDNERELLA ENDOLYSINS AND USES THEREOF” (priority 2019, published 2022).
Converted amounts (≈) assume the structure as drawn. Where two headings read alike, the source gives them in different places.

System: all tested Gardnerella strains
Test: MIC and MBC microbroth dilution, stated over all tested strains
Type: cell-based
Details: for MIC: Gardnerella
Procedure: One of the main deficiencies in the treatment of BV is the high rate of recurrence in many women, which leads to repeated administration of antibiotics and concomitant destabilization of the microbiome and other side effects. The minimal inhibitory concentration (MIC) and minimal bactericidal concentration (MBC) on Gardnerella cells of the strains also used for the endolysin activity assays were then measured using the method described in Reference Example 6 and 7. […] Essentially, Gardnerella suspensions at 2.5×10^7 CFU/ml were incubated with the concentration of antibiotics as indicated and incubated for 48 h at 37° C. under anaerobic conditions. […] OD(610) was measured at the beginning and the end of the experiment. At the end of the experiment, 2 ul of each reaction mix was spotted on agar to determine the MBC.
The conditions under which MIC and MBC were measured are more rigorous than the standard.
Example 7—Activity assays of a representative (H2B10) of domain swapped endolysins on the growth in suspension of different Gardnerella strains. […] The conditions under which MBC was measured are more rigorous than the standard. […] In general, it is known, that antibiotics only insufficiently eradicate the Gardnerella biofilm, a hallmark of BV, which is one suspected reason for the reported very high recurrence rate of BV. Despite leaving residual viable biofilm, antibiotics wipe parts of the beneficial organisms of the vaginal microbiome which then opens an ecological niche for other pathogens, e.g. fungi.
Bacteria were plated from cryo stock on BD Choc Agar plates (Gardnerella) and incubated at 37° C. for 48 h under anaerobic conditions. Colonies were scraped from the plate, resuspended in Hardy Broth or NYC-III-HS-pH 5.0, and the suspension adjusted to OD (610 or 620 nm as indicated) 0.05. It has to be noted that two Tecan Microplate readers, having respectively a 610 nm or 620 nm filter, have been used interchangeably in the experiments. Although it doesn't make any difference for the experiments, the exact wavelength used is specified in each example. Antibiotics were prepared as 20× stocks for each of the required final concentrations. […] OD (610-620 as indicated) at the start of the reaction was measured, then the plate was incubated at 37° C. for 48 h under anaerobic conditions. After that, the OD (610-620 as indicated) was measured again for MIC determination, where MIC was defined as the lowest concentration of antibiotic where the OD (610-620 as indicated) was not above the level measured at the beginning of the experiment. […] After incubation, cell growth on each spot was evaluated, and the MBC defined as the lowest concentration of antibiotics where no bacteria grew on the plate.

Cc1ncc([N+](=O)[O-])n1CCO [Metronidazole]
MIC (48 h, first round: […]10^7 CFU/ml, 48 h anaerobic (FIG. 14), read-out: MIC over all Gardnerella strains): 64 to 128 µg/mL (≈ 374 to 748 µM) | MIC (second round: 1×10^5-1×10^6 CFU/ml (FIG. 15), read-out: MIC over all tested Gardnerella strains): 8 to 128 µg/mL (≈ 46.7 to 748 µM) | susceptibility of the Gardnerella strains, in words (MIC microbroth dilution): resistant
